As a reminder, the Ki is a measure of affinity in units of concentration, obtained from inhibition or displacement. One may read the IC50 as the midpoint of a concentration-inhibition curve.

The target of experiment [1] is Musashi 2 (Msi2) (Homo sapiens, UniProt Q96DH6). Nature of the experiment: Msi2 FP assay. Type of experiment: binding. The conditions noted are these: cell marked (RRM1), read-out: Msi2 (Ki) (RRM1).
Experiment [2] has as its system MDA-MB-231 cells. In words: Matrigel invasion assay. Type of experiment: cell-based. The note with it: 10 μM; 24 h pretreatment, 20 h incubation. As for the experimental part: To examine the anti-metastatic effect of compounds of the present technology, an invasion assay using Matrigel Invasion Chambers coated with Matrigel Matrix was performed. To perform the assays, MDA-MB-231 cells pretreated with compounds for 24 hours are added to the chambers and then incubated for 20 hours. Cells that remained on the upper surface of the chamber are completely removed with a cotton swab. Cells that emigrated or invaded through the membrane/Matrigel to the bottom of the chamber were fixed and stained with 0.2% crystal violet and photographed.

The target in experiment [3] is T1, HuR-bound target mRNAs in MDA-MB-231 cells (Homo sapiens, UniProt Q15717).
T1 construct: endogenous in cells; host or cells: MDA-MB-231
T1 sequence (Q15717 2-326 limits assumed): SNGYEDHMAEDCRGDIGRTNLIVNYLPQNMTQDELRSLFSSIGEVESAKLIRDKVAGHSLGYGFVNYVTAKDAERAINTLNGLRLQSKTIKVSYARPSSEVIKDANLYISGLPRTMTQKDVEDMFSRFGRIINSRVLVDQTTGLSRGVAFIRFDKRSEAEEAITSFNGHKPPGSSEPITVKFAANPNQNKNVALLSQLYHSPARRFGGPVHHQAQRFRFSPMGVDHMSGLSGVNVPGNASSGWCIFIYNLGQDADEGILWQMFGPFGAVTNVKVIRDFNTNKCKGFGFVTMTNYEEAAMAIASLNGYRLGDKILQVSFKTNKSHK
Nature of the experiment: Ribonucleoprotein immunoprecipitation (RNP-IP) pull-down assay. The experiment is classed as cell-based. The note with it: 10 μM. The procedure: Pull-down Assay #2—Ribonuleoprotein Immunoprecipitation (RNP-IP): Cells with HuR overexpression were treated with compounds, then the cell cytoplasmic lysates collected using NE-PER Nuclear and Cytoplasmic Extraction Kit (Thermo Scientific), then the cell cytoplasmic lysates incubated with anti-HuR antibody, and subsequently Protein G agarose beads (from Roche) added to pull down HuR protein. The HuR-bound target mRNAs pulled down were measured by qRT-PCR using a reported method (Ji, Q., et al., MicroRNA miR-34 inhibits human pancreatic cancer tumor-initiating cells. PLoS One, 2009. 4(8): p. e6816, incorporated herein by reference). Mouse IgG will be used as negative control. Compounds of the present technology block the target mRNAs pulled down by HuR antibody.

In experiment [4] the target is T2, full-length human HuR protein (Homo sapiens, UniProt Q15717).
T2 construct: full-length human HuR protein was produced by the KU COBRE-PSF Protein Purification Group; made in house
T2 sequence (Q15717 whole entry): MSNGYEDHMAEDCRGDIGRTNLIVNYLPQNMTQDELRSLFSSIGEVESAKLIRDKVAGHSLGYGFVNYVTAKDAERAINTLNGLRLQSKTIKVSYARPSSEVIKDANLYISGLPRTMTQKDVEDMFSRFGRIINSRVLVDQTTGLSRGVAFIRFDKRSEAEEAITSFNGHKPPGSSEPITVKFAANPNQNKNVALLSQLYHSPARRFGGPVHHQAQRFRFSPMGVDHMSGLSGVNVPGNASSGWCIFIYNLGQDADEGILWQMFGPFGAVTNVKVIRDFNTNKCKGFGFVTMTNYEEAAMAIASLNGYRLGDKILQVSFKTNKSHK
Nature of the experiment: FP assay of HuR-Msi1 ARE binding inhibition. The conditions noted are these: HuR-Msi1 ARE interaction; read-out: HuR Ki via FP assay. A digest of the protocol:
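Fluorescence polarization competition using full-length human HuR protein and a 3′-fluorescein-labelled 16-nt Msi1 ARE RNA. A fluorescein-labelled degenerate 16-nt RNA served as negative control.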

Experiment [5] deals with triple-negative breast cancer cell line MDA-MB-231. Nature of the experiment: Cytotoxicity assay (WST-8), MDA-MB-231. The note with it: Homo sapiens, 96 h incubation. The experiment is classed as cell-based. An outline of the steps: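 Cells (3,000-5,000/well) were treated in triplicate with titrated compounds for 96 h, then WST-8 was added for 1-3 h at 37° C and absorbance read at 450 nm (650 nm correction). IC50 (50% growth inhibition vs vehicle) came from sigmoid curve fitting.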

For experiment [6], the system named is MDA-MB-231 HuR knockout clones (HuR KO1 and HuR KO2). In words: Cytotoxicity against HuR knockout clones of MDA-MB-231. Type of experiment: cell-based. The note with it: HuR KO1 and HuR KO2 vs MDA-MB-231 and sgControl. The procedure:
The cytotoxicity of various compounds of the present technology in several cancer cell lines (pancreatic cancer cell line MIAPaCa-2, triple-negative breast cancer cell line MDA-MB-231, and colon cancer cell lines HCT116, HCT116 β/W, and RKO) was assessed by a cytotoxicity assay. Cells were seeded in 96-well culture plates (3,000-5,000 cells/well) and treated with titrated compounds in triplicate. After 96 h incubation, cell growth medium was removed and proliferation reagent WST-8 (Sigma) was added to each well and incubated at 37° C. for 1-3 h. Absorbance was then measured with a plate reader at 450 nm with correction at 650 nm. The results were expressed as the percentage of absorbance of treated wells versus that of vehicle control. IC50, the drug concentration causing 50% growth inhibition, was calculated via sigmoid curve fitting using GraphPad Prism 5.0. The results for those compounds tested against MIAPaCa-2 and MDA-MB-231 are provided in Table 1; the results for those compounds tested against colon cancer cell lines HCT116, HCT116 β/W, and RKO are provided in Table 3.
The cytotoxicity of KH-39 and KH-58 against HuR knockout clones was probed by the same assay as described above. […]

Musashi 2 (Msi2), sequence (Q96DH6 whole entry, species assumed): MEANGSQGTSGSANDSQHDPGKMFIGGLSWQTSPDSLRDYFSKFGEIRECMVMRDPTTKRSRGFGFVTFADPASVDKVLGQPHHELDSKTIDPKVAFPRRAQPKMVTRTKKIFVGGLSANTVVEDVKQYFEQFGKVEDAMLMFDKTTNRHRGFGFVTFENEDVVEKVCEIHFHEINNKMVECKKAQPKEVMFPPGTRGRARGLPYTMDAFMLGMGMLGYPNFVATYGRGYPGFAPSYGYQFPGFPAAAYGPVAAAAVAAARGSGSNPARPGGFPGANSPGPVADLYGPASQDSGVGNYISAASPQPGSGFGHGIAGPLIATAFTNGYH

Turning to `CC(C)(C)c1ccc(C(=O)Nc2ccc3[nH]c(C(=O)NO)cc3c2)cc1` [KH-39, 5-(4-(tert-butyl)benzamido)-N-hydroxy-1H-indole-2-carboxamide], the Ki is 3.15 µM in experiment [1] and 0.65 µM in experiment [4]. Further, the MDA-MB-231 cell invasion result in experiment [2] is “clearly inhibited MDA-MB-231 cell invasion”. Besides, in experiment [3], the “HuR pull-down of target mRNAs” value is given as “at least partially block HuR pull-down of target mRNAs”. Further, in experiment [5], inhibition was half-maximal at 4.74 µM (IC50). Also, the “IC50 of HuR KO clones versus parental cells and vector control cells” value in experiment [6] was “two to three folds higher IC50 values”.
